Laboratory results from publication PMC9166766 (Experimental & Molecular Medicine, 2022).
No end group written: not given here.

Experiments:
NFATC2 dephosphorylation = test: NFAT mobility shifting assay in Jurkat T cells; assay type: cell-based; conditions: HA-mCherry-tagged peptides, PMA and ionomycin 2 h, n = 7
Experimental: Jurkat T cells expressing GST-tagged peptides were treated with PMA and ionomycin for activation. […] For dephosphorylation of NFATC2, Jurkat T cells were treated with PMA and ionomycin for 2 h. c Hyper- and hypophosphorylated NFATC2 of b was measured using ImageJ, and the hypo/hyper ratio was calculated (n = 7). d Snapshot images of the activated Jurkat T cells expressing the indicated peptides and tNFATC2 were obtained using confocal microscopy. The expression and localization of peptides and tNFATC2 are shown as mCherry (red) and EGFP (green), respectively. Nuclei were stained with Hoechst (blue). Scale bar, 50 μm e Nuclear-localized tNFATC2 was measured by calculating the colocalization ratio between Hoechst (M1) and EGFP (M2). […] Statistical differences were determined using a two-tailed Student’s t-test (a, c) or one-way ANOVA (e). ***p < 0.001, NC negative control.

tNFATC2 nuclear import = test: Nuclear localization of EGFP-tNFATC2 by confocal microscopy in Jurkat T cells; assay type: cell-based; conditions: 40 nM PMA and 1 μM ionomycin 4 h, FK506 0.5 μM, n = 10-12
Experimental: We transfected Jurkat T cells with the pCAG-EGFP-tNFATC2-IRES-mCherry-peptide by electroporation. After two days, we pretreated these cells with 0.5 μM FK506 for 30 min. Then, we treated them with 40 nM PMA and 1 μM ionomycin under culture conditions for 4 h. Before imaging by a confocal laser scanning microscope (Nikon, Tokyo, Japan), we treated the cells with 10 μg/ml Hoechst 33342 (Invitrogen, Waltham, MA, USA) to stain nuclei. Colocalization analysis of mCherry and Hoechst was performed with ImageJ and its plugin JACoP to measure the Manders coefficient[23],[24].
Scale bar, 50 μm e Nuclear-localized tNFATC2 was measured by calculating the colocalization ratio between Hoechst (M1) and EGFP (M2).

[1] = tested on: Jurkat T cells (PMA and ionomycin-induced gene expression); test: mRNA sequencing of activated Jurkat T cells; assay type: cell-based, human
Experimental: We then extracted RNA from these cells. Construction of the cDNA library and next-generation sequencing was performed at LAS (Gimpo, Korea). We sequenced all samples on an Illumina NextSeq 500 system with 75 paired-end reads. For the RNA sequencing analysis, reads for each sample were aligned to the human genome (GRCh37/hg19 genome assembly) using STAR 2.4.0.1[25] with default settings. We used HOMER tools to quantify and normalize the defined genes in RefSeq transcripts. FPKM normalized genes were hierarchically clustered using Cluster3.0[26]. We visualized refined data with Java Treeview (http://jtreeview.sourceforge.net). We conducted gene ontology analysis of each cluster using the DAVID web tool (https://david.ncifcrf.gov). Finally, we visualized the expression levels of target genes using the Integrative Genomics Viewer (http://software.broadinstitute.org/software/igv). The raw data were submitted to the NCBI Gene Expression Omnibus under accession number GSE185561.
Fig. 3 The CABIN1 peptide inhibits T-cell activation. a Heatmap of altered genes affected by FK506 treatment or CABIN1 peptide expression upon T-cell activation. b Gene Ontology analysis of cluster III. c mRNA expression levels of genes included in cluster III. d qRT-PCR data of genes in c. The experiment was independently repeated at least three times, and the data are presented as the mean ± standard deviation. Statistical differences were determined using two-tailed Student’s t-test. *p < 0.05, **p < 0.01, ***p < 0.001, NC negative control.

For “CABIN1-L-1-2: 10 amino acids from proline 2146 to proline 2155 of full-length CABIN1; expressed GST-, GAL4 DBD- or HA-mCherry-tagged (PEITVTPPTP; also: expressed GST-, GAL4 DBD- or HA-mCherry-tagged, end not given here)”, the “NFATC2 dephosphorylation / band shift” value (NFATC2 dephosphorylation) was “significantly inhibited the NFATC2 band shift”, the “proportion of nuclear-localized tNFATC2” value (tNFATC2 nuclear import) was “slightly higher” and the “CD27 and CD70 expression” value ([1]; Jurkat, PMA and ionomycin 8 h) was “repressed”. For the same substance, the “RNA levels of T-cell activation markers (IL2, IL3, NFATC1, CCL4, CCL20, CXCL8)” value ([1]; Jurkat, PMA and ionomycin 8 h) was “reduced the RNA levels”, the TM4SF1 expression ([1]; P+I 8 h, NC 0, NC_P+I 3.268) was 0.907 FPKM and the CD200 expression ([1]; P+I 8 h, NC 0, NC_P+I 3.759) was 0.094 FPKM. It also gave a ZP4 expression ([1]; P+I 8 h, NC 0, NC_P+I 6.38) of 5.182 FPKM, a CCL3L1 expression ([1]; P+I 8 h, NC 0, NC_P+I 6.448) of 0.079 FPKM and a CCL3L3 expression ([1]; P+I 8 h, NC 0, NC_P+I 6.524) of 0.079 FPKM. The CCL1 expression ([1]; P+I 8 h, NC 0, NC_P+I 9.86) was 0.415 FPKM, the NR4A2 expression ([1]; P+I 8 h, NC 0, NC_P+I 10.173) was 0.356 FPKM and the CCL4L2 expression ([1]; P+I 8 h, NC 0, NC_P+I 12.758) was 0.328 FPKM. It also gave a CCL4L1 expression ([1]; P+I 8 h, NC 0, NC_P+I 13.27) of 0.328 FPKM, a CSF2 expression ([1]; P+I 8 h, NC 0, NC_P+I 23.497) of 0.314 FPKM and an XCL1 expression ([1]; P+I 8 h, NC 0, NC_P+I 49.113) of 1.144 FPKM. For the same substance, the CCL3 expression ([1]; P+I 8 h, NC 0, NC_P+I 52.239) was 0.502 FPKM, the CCL20 expression ([1]; P+I 8 h, NC 0, NC_P+I 59.393) was 1.279 FPKM and the IL3 expression ([1]; P+I 8 h, NC 0, NC_P+I 229.054) was 6.298 FPKM. For the same substance, the CCL4 expression ([1]; P+I 8 h, NC 0, NC_P+I 247.287) was 4.062 FPKM, the IL2 expression ([1]; P+I 8 h, NC 0, NC_P+I 397.807) was 12.964 FPKM and the C3 expression ([1]; P+I 8 h, NC 0.006, NC_P+I 3.907) was 1.329 FPKM. The TNS3 expression ([1]; P+I 8 h, NC 0.008, NC_P+I 13.196) was 1.418 FPKM, the PLS3 expression ([1]; P+I 8 h, NC 0.019, NC_P+I 4.717) was 0.37 FPKM and the CREB5 expression ([1]; P+I 8 h, NC 0.031, NC_P+I 4.533) was 1.966 FPKM. The IRF4 expression ([1]; P+I 8 h, NC 0.034, NC_P+I 8.439) was 2.092 FPKM, the CXCL8 expression ([1]; P+I 8 h, NC 0.037, NC_P+I 26.755) was 3.327 FPKM and the SLAMF1 expression ([1]; P+I 8 h, NC 0.042, NC_P+I 5.663) was 0.275 FPKM. The TNFSF14 expression ([1]; P+I 8 h, NC 0.045, NC_P+I 69.958) was 4.255 FPKM, the IL21R-AS1 expression ([1]; P+I 8 h, NC 0.048, NC_P+I 23.616) was 3.991 FPKM and the XCL2 expression ([1]; P+I 8 h, NC 0.056, NC_P+I 70.747) was 2.074 FPKM. For the same substance, the LIF expression ([1]; P+I 8 h, NC 0.063, NC_P+I 3.697) was 0.231 FPKM, the SHC4 expression ([1]; P+I 8 h, NC 0.069, NC_P+I 4.391) was 0.686 FPKM and the RGS16 expression ([1]; P+I 8 h, NC 0.077, NC_P+I 29.102) was 5.595 FPKM. For the same substance, the IL21R expression ([1]; P+I 8 h, NC 0.1, NC_P+I 34.712) was 5.255 FPKM, the CRTAM expression ([1]; P+I 8 h, NC 0.104, NC_P+I 100.175) was 9.51 FPKM and the ZNF704 expression ([1]; P+I 8 h, NC 0.107, NC_P+I 4.985) was 0.183 FPKM. For the same substance, the NTRK1 expression ([1]; P+I 8 h, NC 0.167, NC_P+I 7.941) was 1.657 FPKM, the PHEX expression ([1]; P+I 8 h, NC 0.188, NC_P+I 17.377) was 0.786 FPKM and the SORBS1 expression ([1]; P+I 8 h, NC 0.196, NC_P+I 5.08) was 0.511 FPKM. The TIAM2 expression ([1]; P+I 8 h, NC 0.255, NC_P+I 4.095) was 0.301 FPKM, the CRIM1 expression ([1]; P+I 8 h, NC 0.268, NC_P+I 3.029) was 0.333 FPKM and the SERPINB2 expression ([1]; P+I 8 h, NC 0.28, NC_P+I 85.882) was 14.103 FPKM. For the same substance, the CCND2 expression ([1]; P+I 8 h, NC 0.321, NC_P+I 6.436) was 0.99 FPKM, the CXCR3 expression ([1]; P+I 8 h, NC 0.604, NC_P+I 14.322) was 1.803 FPKM and the ISM1 expression ([1]; P+I 8 h, NC 0.798, NC_P+I 56.893) was 3.737 FPKM. The C10orf54 expression ([1]; P+I 8 h, NC 0.84, NC_P+I 7.506) was 0.487 FPKM, the CSF1 expression ([1]; P+I 8 h, NC 0.848, NC_P+I 13.43) was 2.594 FPKM and the SLC35E4 expression ([1]; P+I 8 h, NC 0.887, NC_P+I 9.069) was 1.517 FPKM. For the same substance, the ZNF827 expression ([1]; P+I 8 h, NC 0.975, NC_P+I 3.401) was 1.372 FPKM, the CD70 expression ([1]; P+I 8 h, NC 1.101, NC_P+I 61.146) was 7.606 FPKM and the PAM expression ([1]; P+I 8 h, NC 1.154, NC_P+I 5.577) was 1.934 FPKM. The FOXO1 expression ([1]; P+I 8 h, NC 1.167, NC_P+I 8.247) was 3.736 FPKM, the IRF8 expression ([1]; P+I 8 h, NC 1.168, NC_P+I 14.813) was 1.914 FPKM and the SCHIP1 expression ([1]; P+I 8 h, NC 1.25, NC_P+I 3.933) was 1.333 FPKM. It also gave an FOSL2 expression ([1]; P+I 8 h, NC 1.294, NC_P+I 7.508) of 2.362 FPKM, a TNFSF9 expression ([1]; P+I 8 h, NC 1.393, NC_P+I 7.107) of 2.651 FPKM and an IQCJ-SCHIP1 expression ([1]; P+I 8 h, NC 1.402, NC_P+I 4.253) of 1.234 FPKM. The STAT5A expression ([1]; P+I 8 h, NC 1.417, NC_P+I 9.105) was 3.055 FPKM and the TDRD9 expression ([1]; P+I 8 h, NC 1.428, NC_P+I 25.902) was 1.888 FPKM.
